16 compounds from ChEMBL document CHEMBL3351699, “Diarylthiazole: an antimycobacterial scaffold potentially targeting PrrB-PrrA two-component system” (J Med Chem, 2014) can be followed below.

Values after ≈ are worked out from the molar mass of the structure shown. Active and inactive are the calls of the source. No cut-off for these calls is given here. Some results are limits rather than exact numbers.

Holding throughout (assay type): functional
The subject of assay [1] is Mycobacterium tuberculosis. In words: Antimicrobial activity against clinical isolate Rifampin-resistant Mycobacterium tuberculosis assessed as growth inhibition after 7 days by turbidometry. The settings on record: 168 h.
Assay [2] deals with Mycobacterium tuberculosis. Put plainly: Antimicrobial activity against clinical isolate Isoniazid-resistant Mycobacterium tuberculosis assessed as growth inhibition after 7 days by turbidometry. The note with it: 168 h.
In assay [3] the test system is Mycobacterium tuberculosis. Put plainly: Antimicrobial activity against second mutant generation Mycobacterium tuberculosis 1024_16.5 assessed as fold shift in MIC relative to parent strain.
The test system of assay [4] is Mycobacterium tuberculosis. In words: Antimicrobial activity against second mutant generation Mycobacterium tuberculosis 1024_18 assessed as fold shift in MIC relative to parent strain.
The test system of assay [5] is Mycobacterium tuberculosis. In words: Antimicrobial activity against second mutant generation Mycobacterium tuberculosis 1024_16.6 assessed as fold shift in MIC relative to parent strain.
Assay [6] relates to Mycobacterium tuberculosis. In words: Antimicrobial activity against second mutant generation Mycobacterium tuberculosis 1024_8.12 assessed as fold shift in MIC relative to parent strain.
Assay [7] concerns Mycobacterium tuberculosis. Put plainly: Antimicrobial activity against Mycobacterium tuberculosis H37Rv over-expressing InhA cells assessed as upshift of MIC relative to wild type.
The subject of assay [8] is Mycobacterium tuberculosis. In words: Antimicrobial activity against first mutant generation Mycobacterium tuberculosis 1024_18 assessed as fold shift in MIC relative to parent strain.
Assay [9] has as its system Mycobacterium tuberculosis. Put plainly: Antimicrobial activity against first mutant generation Mycobacterium tuberculosis 1024_1 assessed as fold shift in MIC relative to parent strain.

In the case of `CCCc1cc(-c2nc(-c3cccc(OC)c3)cs2)ccn1`, the MIC80 (as a rule, an inhibitory concentration at the 80% level, which refers to growth in some studies and to a panel of isolates in others) in assay [1] stood at 0.5 µg/mL (≈ 1.61 µM); in assay [2] it was 1 µg/mL (≈ 3.22 µM).
As to `CCCc1cc(-c2nc(-c3ccc(NS(C)(=O)=O)cc3)cs2)ccn1`, the MIC80 stood at 0.13 µg/mL (≈ 0.348 µM) in assay [1] and 0.5 µg/mL (≈ 1.34 µM) in assay [2].
In the case of `CCCc1cc(-c2nc(-c3ccc(OCC4CC4)cc3)cs2)ccn1`, the MIC80 was 0.13 µg/mL (≈ 0.371 µM) in assay [1] and 1 µg/mL (≈ 2.85 µM) in assay [2].
For the compound `CCCc1cc(-c2nc(-c3ccc(OCCN4CCOCC4)cc3)cs2)ccn1`, the MIC80 in assay [1] worked out at 0.5 µg/mL (≈ 1.22 µM); in assay [2] it was 1 µg/mL (≈ 2.44 µM). The Ratio in assay [3] is listed as 4; in assay [4], 8; in [5], above 8; in assay [6] it was 8.
In the case of `CCCc1cc(-c2nc(-c3ccncc3)cs2)ccn1`, the result in assay [7] was Active. Also, the Ratio in assay [3] was 16; in assay [8], 8; in assay [4] it was 8; in assay [5], 16; in assay [6], 8; in assay [9], 16.
`CCCc1cc(-c2nc(-c3ccccn3)cs2)ccn1`: in assay [7], the outcome was Active.
As for `CCCc1cc(-c2csc(-c3ccnc(CCC)c3)n2)ccn1`, the result in assay [7] was Active.
Regarding `CCCc1cc(-c2nc(-c3ccnc(OCC)c3)cs2)ccn1`, the result in assay [7] was Active.
In the case of `COc1nc2ccc(Br)cc2cc1[C@@H](c1ccccc1)[C@@](O)(CCN(C)C)c1cccc2ccccc12` [BEDAQUILINE], the Ratio is on record as 0.5 in assay [3]; 0.5 in assay [8]; 0.25 in assay [4]; 0.5 in assay [5]; 0.25 in assay [6]; 1 in [9].
In the case of `CCc1cc(C(N)=S)ccn1` [ETHIONAMIDE], the “fold change (FC)” value in assay [7] worked out at 8.
Take `CCCc1cc(-c2nc(-c3ccc(C)cc3)cs2)ccn1` [FATOSTATIN]: the result in [7] was Active. Besides, the Ratio is listed as 16 in [3]; 16 in assay [8]; 16 in [4]; above 32 in assay [5]; 16 in assay [6]; 8 in assay [9].
On to `NNC(=O)c1ccncc1` [ISONIAZID], for which the results for the MIC80 in assay [1] and in [2] were 0.03 µg/mL (≈ 0.219 µM) and above 16 µg/mL, respectively. The “fold change (FC)” value in [7] was found to be 8. The Ratio in assay [3], in assay [8], in assay [4], in assay [5], in [6] and in assay [9] was 1 in each case.
With `CC(=O)NC[C@H]1CN(c2ccc(N3CCOCC3)c(F)c2)C(=O)O1` [LINEZOLID], the Ratio in [8] and in [9] was 1 in each case.
In the case of `COc1c(N2C[C@@H]3CCCN[C@@H]3C2)c(F)cc2c(=O)c(C(=O)O)cn(C3CC3)c12` [MOXIFLOXACIN], the Ratio in assay [3] is listed as 1; in [8] it was 1; in assay [4] it was 0.5; in assay [5] it was 1; in assay [6], 1; in assay [9], 1.
`CO[C@H]1/C=C/O[C@@]2(C)Oc3c(C)c(O)c4c(O)c(c(/C=N/N5CCN(C)CC5)c(O)c4c3C2=O)NC(=O)/C(C)=C\C=C\[C@H](C)[C@H](O)[C@@H](C)[C@@H](O)[C@@H](C)[C@H](OC(C)=O)[C@@H]1C` [RIFAMPIN]: the MIC80 was above 16 µg/mL in [1] and 0.003 µg/mL (≈ 0.00365 µM) in assay [2]. Also, the Ratio in assay [8] and in assay [9] was 0.5 throughout.
On to `Oc1cc(Cl)ccc1Oc1ccc(Cl)cc1Cl` [TRICLOSAN], for which the “fold change (FC)” value in assay [7] was 8.
